Measured values: article PMC7738869, “A novel STAT3 inhibitor W2014-S regresses human non-small cell lung cancer xenografts and sensitizes EGFR-TKI acquired resistance” (Theranostics, 2021)

Legend:
PC-9 cells = test: Colony formation assay, PC-9; type: cell-based, human; settings: PC-9, as low as 0.3 μM
A549 xenografts = test: A549 tumor xenografts in nude mice; type: in vivo
Experimental: To establish cell xenograft model, nude mice were injected subcutaneously with A549 cells (2×10^6) or PC-9/GR cells (4×10^6). For PDX model, the PDX sample was from The Jackson Laboratory. The model ID is TM00192/LG0567F. For this patient, the primary site is lung, the initial and diagnosis and final diagnosis is lung adenocarcinoma. The stage/grade is AJCC IB/grade 3. […] The sample type is surgical resection. […] The tumor sample were cut into approximately 1 mm^3, and the tissue was pushed under skin of mice by TROCHAR. When tumor volumes reached approximately 100 mm^3, mice were randomly distributed into groups of 7 mice. […] Tumor size was measured every two days by vernier caliper. The average tumor volume in each group was calculated based on the equation for a prolate spheroid (tumor volume = (short-diameter)^2 × large-diameter × π / 6 ) and expressed in mm^3.

pY705-STAT3 = test: Immunofluorescence of nuclear pY705-STAT3 in A549 cells; type: cell-based, human; settings: A549, 3 h treatment
Experimental: A549 cells were cultured into confocal dishes (Costar, USA). After 24 h, W2014-S was added into dishes. After another 3 h, cells were fixed with 4% paraformaldehyde in PBS for 10 min at room temperature. Then cells were permeabilized with 0.3% Trition X-100 for 5 min at room temperature, following by incubating with primary antibody overnight at 4 ℃. Next, cells were incubated with Alexa-Fluor-conjugated secondary antibodies for 1 h in the dark. The cells were subsequently stained with DAPI (40728ES50, Yeasen, Shanghai, China). Images were captured by Laser Scanning Confocal Microscope FV3000 (Olympus, Japan). Z-stacks were collected with a spacing of 1 μm. Antibody and dilutions used in the studies were: pY705-STAT3 (9145S, Cell Signaling Technology, 1:100), Alexa Fluor 488 Conjugate (1:5000, #4412, Cell signaling Technology, USA). The fluorescence intensity profile along the Z-axis from confocal Z-stacks was shown. The fluorescence intensity of nuclear-localized p-STAT3 was quantified using the confocal software to define the area of the selected region of interest based on the nuclear DAPI signal. Each experiment was done in at least 3 independent experiments.

[1] = test system: pY705-STAT3 and pY1068-EGFR; test: Western blot of pY705-STAT3 and pY1068-EGFR in PC-9/GR cells; type: cell-based, human; settings: W2014-S 1 μM and/or gefitinib 2 μM, 24 h
Experimental: Cells or tumor tissue were lysed with RIPA buffer (Beyotime, Shanghai, China) supplemented with protease inhibitors (Beyotime, Shanghai, China) and phosphatase inhibitors (Bimake, USA). Lysates were denatured by heating for 5 min at 99 °C and loaded on 4-10% SDS-polyacrylamide gel electrophoresis. Then the proteins were transferred to polyvinylidene fluoride (PVDF) membranes (Millipore, USA). The membranes were blocked and probed with primary antibodies and secondary HPR-conjugated antibodies. At last the membranes were detected by chemiluminescence (Tanon, Shanghai, China). […] Cells were lysed with IP RIPA buffer (Beyotime, Shanghai, China) supplemented with protease inhibitors (Beyotime, Shanghai, China) and phosphatase inhibitors (Bimake, America), and lysates were cultured with Anti-flag Affinity Gel (B23102, Bimake, USA) overnight at 4 ℃. The gel was washed by PBST for three times and added 1×loading buffer and denatured by heating for 5 min at 99 ℃. Then the proteins were resolved on SDS-PAGE, transferred to PVDF membranes and analysed with immunoblotting.

A549 cells = test: Wound healing assay for migration; type: cell-based, human; settings: 48 h
Experimental: The motility of cells was measured by wound healing assay. Cells were seeded into 6-well plates and cultured to 90-100% confluent after 24 h. Wounds were made in each well of 6-well plates using pipette tips. […] The migration of cells was visualized under a microscope (4 ×, Nikon, Japan) and photographed in different time points (0 and 48 h).

C[C@H](Oc1ccc(-c2nc3nc(C4=CCN(C(=O)OC(C)(C)C)CC4)ccc3[nH]2)cc1)c1ccccc1 [W2014-S]
colony formation (PC-9 cells): significantly suppressed the colony formation
body weights and signs of toxicity during treatment (A549 xenografts; A549 xenograft mice, 5 or 15 mg/kg daily, 21 d): no significant changes in body weights, or obvious signs of toxicity
level of pY705-STAT3 in tumor (western blot) (A549 xenografts; A549 xenografts): significantly suppressed the level of pY705-STAT3
growth of xenografts (A549 xenografts; A549 xenografts, i.p. 5 or 15 mg/kg daily, 21 d): significantly inhibited growth
expression of Ki-67 in tumor (IHC) (A549 xenografts; A549 xenografts, vs vehicle): significantly reduced
accumulation of pY705-STAT3 in the nucleus (pY705-STAT3): decreased
level of pY705-STAT3 and pY1068-EGFR [1]: reduced the phosphorylation of STAT3
cell migration (A549 cells): remarkably inhibited the migration
